One data set deals with Galanin GAL1 (Homo sapiens, UniProt P47211). The data set can be described thus: CEREP binding profile: GAL1. The source says:
(§1) The CEREP High-throughput profile consists of a broad collection of 80 transmembrane and soluble receptors, ion channels and G-Protein coupled receptors.

For a further data set, the target named is Galanin GAL2 (Homo sapiens, UniProt O43603). Description: CEREP binding profile: GAL2.
Excerpt: as §1

Data set [1] concerns the target Opioid and opioid-like kappa (KOP) (Rattus norvegicus, UniProt P34975). The data set can be described thus: CEREP binding profile: kappa. To be noted: 10 μM.
Excerpt: as §1

The target in data set [2] is Opioid and opioid-like NOP (ORL1) (Homo sapiens, UniProt P41146). The data set can be described thus: CEREP binding profile: NOP. Conditions: 10 μM.
Opioid and opioid-like NOP (ORL1), sequence (P41146 whole entry, species assumed): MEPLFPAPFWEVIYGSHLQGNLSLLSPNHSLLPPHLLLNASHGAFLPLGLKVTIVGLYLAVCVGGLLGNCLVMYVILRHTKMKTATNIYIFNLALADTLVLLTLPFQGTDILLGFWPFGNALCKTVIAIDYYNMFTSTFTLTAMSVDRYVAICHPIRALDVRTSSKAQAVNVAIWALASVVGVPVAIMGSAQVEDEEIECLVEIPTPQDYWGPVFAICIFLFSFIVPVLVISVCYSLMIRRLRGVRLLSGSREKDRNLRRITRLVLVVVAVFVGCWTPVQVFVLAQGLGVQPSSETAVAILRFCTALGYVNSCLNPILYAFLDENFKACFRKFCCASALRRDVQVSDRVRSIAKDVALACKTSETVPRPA
Excerpt: as §1

A further data set has as its target Prostanoid IP (PGI2) (Homo sapiens, UniProt P43119). The data set can be described thus: CEREP binding profile: IP.
Excerpt: as §1

Another data set concerns Somatostatin sst. The data set can be described thus: CEREP binding profile: sst. Conditions: 10 μM.
Excerpt: as §1

The target in the next data set is T1, Serotonin 5-HT7 (Homo sapiens, UniProt P34969).
T1 construct: CEREP (contract panel)
T1 sequence (P34969 whole entry): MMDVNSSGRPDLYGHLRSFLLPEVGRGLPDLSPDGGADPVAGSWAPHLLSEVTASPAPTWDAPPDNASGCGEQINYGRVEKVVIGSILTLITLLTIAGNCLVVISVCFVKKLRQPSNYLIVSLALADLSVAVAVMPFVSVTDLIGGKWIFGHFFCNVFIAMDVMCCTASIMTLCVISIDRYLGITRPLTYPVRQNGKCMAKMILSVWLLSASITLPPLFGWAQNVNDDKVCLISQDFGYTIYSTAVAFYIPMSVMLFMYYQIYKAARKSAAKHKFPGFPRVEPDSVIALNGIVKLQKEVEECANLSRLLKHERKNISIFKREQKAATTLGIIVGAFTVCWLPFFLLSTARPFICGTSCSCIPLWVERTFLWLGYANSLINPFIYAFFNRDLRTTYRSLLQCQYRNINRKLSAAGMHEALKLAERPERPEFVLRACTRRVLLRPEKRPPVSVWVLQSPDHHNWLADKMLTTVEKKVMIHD
Description: CEREP binding profile: 5-HT7.
Excerpt: as §1

The next data set concerns Ca2+ channels Ca2+-L. Description: CEREP binding profile: Ca2+-L. To be noted: 10 μM.
Excerpt: as §1

For a further data set, the system named is Glutamate PCP. The data set can be described thus: CEREP binding profile: PCP. To be noted: 10 μM.
Excerpt: as §1

In data set [3] the target is T2, Non-steroid nuclear receptors PPAR gamma (Homo sapiens, UniProt P37231).
T2 construct: CEREP
T2 sequence (P37231 whole entry): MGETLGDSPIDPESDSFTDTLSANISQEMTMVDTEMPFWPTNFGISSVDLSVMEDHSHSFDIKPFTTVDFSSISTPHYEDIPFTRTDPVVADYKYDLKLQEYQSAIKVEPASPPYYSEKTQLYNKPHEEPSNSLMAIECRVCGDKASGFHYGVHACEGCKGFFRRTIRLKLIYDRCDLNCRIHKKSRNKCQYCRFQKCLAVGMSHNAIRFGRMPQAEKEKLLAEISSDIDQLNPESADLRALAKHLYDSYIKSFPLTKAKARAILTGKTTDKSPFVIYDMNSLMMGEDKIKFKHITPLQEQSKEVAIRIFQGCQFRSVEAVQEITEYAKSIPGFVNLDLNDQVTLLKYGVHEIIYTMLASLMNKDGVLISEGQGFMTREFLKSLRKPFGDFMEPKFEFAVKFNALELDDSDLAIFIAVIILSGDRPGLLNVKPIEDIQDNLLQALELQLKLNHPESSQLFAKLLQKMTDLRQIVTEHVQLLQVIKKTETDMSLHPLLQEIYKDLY
Description: CEREP binding profile: PPAR gamma.
Excerpt: as §1

The target in data set [4] is T3, wild-type human CB1 receptor (Homo sapiens, UniProt P21554).
T3 construct: expressed in transfected cells; host or cells: HEK-293 (transient)
T3 sequence (P21554 whole entry): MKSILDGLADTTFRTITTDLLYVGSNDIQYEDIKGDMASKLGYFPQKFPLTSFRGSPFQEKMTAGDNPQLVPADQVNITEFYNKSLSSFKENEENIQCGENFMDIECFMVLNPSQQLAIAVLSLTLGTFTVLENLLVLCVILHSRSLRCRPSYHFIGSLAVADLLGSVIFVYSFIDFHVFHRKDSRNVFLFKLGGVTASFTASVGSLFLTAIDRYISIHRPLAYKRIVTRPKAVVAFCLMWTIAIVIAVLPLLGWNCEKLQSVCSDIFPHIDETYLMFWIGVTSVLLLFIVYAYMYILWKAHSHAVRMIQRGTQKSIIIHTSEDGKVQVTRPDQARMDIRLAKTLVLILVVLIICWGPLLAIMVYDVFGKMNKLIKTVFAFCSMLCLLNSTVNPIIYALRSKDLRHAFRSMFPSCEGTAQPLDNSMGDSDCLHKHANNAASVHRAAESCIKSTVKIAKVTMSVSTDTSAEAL
Description: THC-induced inhibition of cellular respiration in HEK-293-hCB1-WT. Conditions: THC 1 μM. Format: cell-based. On the procedure: In a first study (FIG. 5A), HEK-293 cells were transiently transfected with the wild-type hCB1-expressing plasmid (HEK-293-hCB1-WT). […] After 15 min of incubation, THC (0; 1 μM, dissolved in EtOH, 0.0034%) was added in the culture dishes for 30 minutes.
Cellular respiration was measured in a calibrated oxygraph equipped with a Clark electrode. Oxygen consumption (OC) rate was used to measure cellular respiration.

Another data set in a line: in vivo. To be noted: Ts65Dn and WT, mouse. The source says: At the end of the behavioral study, mice were sacrificed, blood and brain samples were collected.
Data set [5] is described as follows: Anxiety-like behaviors in the elevated plus maze. Format: in vivo, mouse. The source says:
The EPM apparatus was made of grey polyvinyl chloride and consisted of four elevated arms. The arms (height, 60 cm; length, 37 cm; width, 6 cm; each) were arranged in a cross-like disposition, with two opposite arms being enclosed by walls and the two other arms being open. A video camera placed on the top of the maze and connected to a tracking system allowed the automatic scoring of the locomotion of the mice in the maze. The light intensity of the maze was set at 45 lux in the open arms. One mouse was placed in the center of the EPM and was then free to explore the entire maze for 5 minutes. The time spent and the number of entries into the open arms and closed arms were measured. A decrease in the percentages of visits and/or of the time spent in open arms reflects an increase in anxiety levels.
Rimonabant was dissolved in a vehicle containing DMSO, (2%), Tween80 (2%) in injectable NaCl 0.9%. Within the same study, the effect of intraperitoneal injection of rimonabant at 10 mg/kg or of vehicle alone (10 ml/kg) was studied in the EPM in 2-month-old male C57B1/6J mice (n=10 per group). The EPM test was performed 30 minutes after rimonabant injection.

A short description of data set [6]: 7-day oral safety study in rats. The format is in vivo, Sprague-Dawley rats. Here is the method: Morbidity/mortality checks were performed twice daily. Clinical observations were performed before the first dosing and then daily. Functional and neurobehavioral tests were performed before the first dosing and on the last day of treatment. Body weight was recorded on Day-1, Day-3, Day-5 and Day-7. Food consumption was measured weekly.
Blood samples for haematology parameters and clinical chemistry analysis were collected on the day of necropsy (Day-8).
Animals were sacrificed on Day-8. Selected organs were weighed, fixed, preserved at necropsy and examined histopathologically.

For orientation: inhibition means the drop in the measured response relative to a control, in per cent. For orientation: % Inhibition means the drop in the measured response relative to a control, in per cent. The term MTD denotes the highest dose tested that stayed within the study's limit of toxicity.

Prostanoid IP (PGI2), sequence (P43119 whole entry): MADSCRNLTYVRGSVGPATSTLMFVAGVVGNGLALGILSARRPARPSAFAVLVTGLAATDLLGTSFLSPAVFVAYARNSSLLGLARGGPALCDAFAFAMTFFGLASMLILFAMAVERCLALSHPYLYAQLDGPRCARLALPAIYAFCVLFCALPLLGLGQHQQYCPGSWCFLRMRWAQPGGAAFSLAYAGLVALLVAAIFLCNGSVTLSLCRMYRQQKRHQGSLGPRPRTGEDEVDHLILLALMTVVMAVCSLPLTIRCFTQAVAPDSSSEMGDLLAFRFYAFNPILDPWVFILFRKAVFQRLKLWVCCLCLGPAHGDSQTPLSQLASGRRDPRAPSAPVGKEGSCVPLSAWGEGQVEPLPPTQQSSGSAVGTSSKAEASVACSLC
Galanin GAL2, sequence (O43603 whole entry): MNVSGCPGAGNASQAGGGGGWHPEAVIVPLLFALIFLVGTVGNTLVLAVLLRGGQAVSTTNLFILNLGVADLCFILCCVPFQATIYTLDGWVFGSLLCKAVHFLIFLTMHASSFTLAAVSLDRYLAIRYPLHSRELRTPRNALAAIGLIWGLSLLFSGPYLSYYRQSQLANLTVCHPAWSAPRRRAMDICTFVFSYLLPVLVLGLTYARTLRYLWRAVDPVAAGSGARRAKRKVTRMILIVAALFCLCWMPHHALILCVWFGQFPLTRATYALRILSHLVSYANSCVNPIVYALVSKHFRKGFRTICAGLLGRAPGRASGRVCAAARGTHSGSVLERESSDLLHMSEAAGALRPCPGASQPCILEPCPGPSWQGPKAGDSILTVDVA
Galanin GAL1, sequence (P47211 whole entry): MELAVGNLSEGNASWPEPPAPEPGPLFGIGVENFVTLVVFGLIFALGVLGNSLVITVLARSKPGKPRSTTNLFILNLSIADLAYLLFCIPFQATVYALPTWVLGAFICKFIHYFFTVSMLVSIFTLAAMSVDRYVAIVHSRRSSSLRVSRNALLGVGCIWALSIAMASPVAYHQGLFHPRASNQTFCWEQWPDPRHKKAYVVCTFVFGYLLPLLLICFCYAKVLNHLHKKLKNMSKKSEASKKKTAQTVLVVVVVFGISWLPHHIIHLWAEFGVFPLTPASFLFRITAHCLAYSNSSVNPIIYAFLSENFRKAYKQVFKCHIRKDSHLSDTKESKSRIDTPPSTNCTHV
Opioid and opioid-like kappa (KOP), sequence (P34975 whole entry): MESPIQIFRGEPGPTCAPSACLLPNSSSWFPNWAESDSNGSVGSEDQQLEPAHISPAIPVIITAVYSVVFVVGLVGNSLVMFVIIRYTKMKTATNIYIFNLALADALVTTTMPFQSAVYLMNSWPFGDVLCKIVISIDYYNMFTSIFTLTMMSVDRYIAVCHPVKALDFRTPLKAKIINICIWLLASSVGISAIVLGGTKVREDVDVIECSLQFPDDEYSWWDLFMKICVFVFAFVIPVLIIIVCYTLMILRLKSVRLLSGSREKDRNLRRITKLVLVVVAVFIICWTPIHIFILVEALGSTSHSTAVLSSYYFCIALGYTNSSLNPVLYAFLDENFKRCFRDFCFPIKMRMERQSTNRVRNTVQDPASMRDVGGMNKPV

Turning to `CC(=O)[C@H]1CC[C@H]2[C@@H]3CC=C4C[C@@H](O)CC[C@]4(C)[C@H]3CC[C@]12C` [pregnenolone, reference compound], the inhibition at 10 µM on Galanin GAL1 is -16%; at Galanin GAL2 it was 1%; on Prostanoid IP (PGI2), -12%; on Serotonin 5-HT7, 11%; in [3], 4%. The “% Inhibition” value in [1] is 38%; in data set [2], 2%; with Somatostatin sst it was −8%; in the data set with Ca2+ channels Ca2+-L, −19%. Also, the Inhibition % with Glutamate PCP worked out at 5%.

In the case of `CC(=O)[C@@]1(C)CC[C@H]2[C@@H]3CC=C4C[C@@H](OCc5ccccc5)CC[C@]4(C)[C@H]3CC[C@@]21C` [3Bn17MeP, 3β-benzyloxy, 17α-methyl-pregn-5-en-20-one], the inhibition at 10 µM was -26% on Galanin GAL1, -11% at Galanin GAL2, 0% at Prostanoid IP (PGI2) and -12% in data set [3]. Besides, the “% Inhibition” value in [1] is recorded as −17%; in data set [2], 2%; with Somatostatin sst it was −6%; at Serotonin 5-HT7 (10 μM), 8%; with Ca2+ channels Ca2+-L, 12%; in data set [4] (HEK-293-hCB1, maximal inhibition of THC effect), 100%. For the same molecule, in the data set with Glutamate PCP, the Inhibition % is 5%. The ID100 in [4] (HEK-293-hCB1) was 50 nM. Moreover, in data set [4] (tested 1, 2.5, 5, 50 and 100 nM, Tukey's test), the “Concentration with significant block of THC-induced inhibition of cellular respiration” value is on record as at least 2.5 nM. For the same molecule, in “in vivo”, the concentration at 1 month came out at 1.3 ng/mL. In [5] (acute 30 mg/kg per os, 3 hours after administration), the “Percentage of time spent and of visits in the open arms” value is “had no effect”. The “Effect: increase in anxiety-like behaviors (acute administration)” value in data set [5] (male mice, highest dose tested 30 mg/kg) is on record as “No”. Further, the Histopathological changes entry in data set [6] (20 mg/kg per os, 7 days) is recorded as “not associated with any histopathological changes”. In addition, in data set [6] (20 mg/kg per os, 7 days), the Total protein level entry is “tendency to lower total protein level”. Moreover, the Triglyceride level result in [6] (20 mg/kg per os, 7 days) is “higher triglyceride level”; in data set [6] (20 mg/kg per os, 7 days, females), “tendency to a lower triglyceride level”. Further, the “Red blood cell counts” value in [6] (20 mg/kg per os, 7 days, males) is on record as “slight tendency to a lower red blood cell counts”. Besides, the “White blood cell counts” value in [6] (20 mg/kg per os, 7 days, males and females) is on record as “tendency to a lower white blood cell counts”. The Signs of toxicity entry in [6] (20 mg/kg/day per os, 7 consecutive days) is on record as “did not induce any sign of toxicity”. In data set [6] (both sexes, Sprague-Dawley, rat, in vivo, oral, 20 mg/kg, repeated treatment at a single dose, 7 days per os, read-out: Maximum tolerated dose (MTD)), the MTD at 7 days is above 20 mg/kg/day.

The record behind these values is patent US12583884B2, “3beta-(benzyloxy)-17alpha-methyl-pregn-5-en-20-one for use in the treatment of cognitive disorders” (AELIS FARMA, priority 2018, dated 2026).
